pIC50: −log10 of the molar value. Bounds are passed on as bounds.

This test deals with T1, p38a activated, mitogen-activated protein kinase-activated protein kinase 2 (MAPKAP-K2 or MK2) enzyme (Homo sapiens, UniProt P49137).
T1 construct: purchased Invitrogen PV3317
T1 sequence (P49137 whole entry): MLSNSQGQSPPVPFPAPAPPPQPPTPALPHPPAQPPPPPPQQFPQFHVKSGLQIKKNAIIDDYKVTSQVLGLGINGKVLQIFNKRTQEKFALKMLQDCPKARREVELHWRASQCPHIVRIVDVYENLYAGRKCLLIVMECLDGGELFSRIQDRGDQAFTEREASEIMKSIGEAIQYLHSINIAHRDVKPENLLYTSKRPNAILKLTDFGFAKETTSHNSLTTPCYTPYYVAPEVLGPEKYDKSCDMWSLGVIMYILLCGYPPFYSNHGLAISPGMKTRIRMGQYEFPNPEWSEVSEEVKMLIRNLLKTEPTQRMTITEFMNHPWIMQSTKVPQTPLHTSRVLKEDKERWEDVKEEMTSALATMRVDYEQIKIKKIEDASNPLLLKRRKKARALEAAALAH
Description: MK2 OMNIA biochemical assay (AssayQuant continuous-read kinase assay). The conditions noted are these: [MK-2]=0.05 nM, [ATP]=100 μM, [AQT0425]=10 μM. In outline:
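Continuous fluorescence read (ex 360/em 485) of p38a-activated MK2 phosphorylating Sox-conjugated peptide AQT0425 in 50 mM HEPES pH 7.5, 10 mM MgCl2, 1 mM DTT; reads every 71 s for 240 min at room temperature. IC50 from initial linear slopes; apparent Kinact from single-exponential Vobs fits.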
As usually defined, the pIC50 is the negative decadic logarithm of the IC50, by convention in mol/L. In the case of `C[C@@H]1CNc2c(sc3ccc4nc(-c5cn(C6CCN(CCN7CCN(c8ccc(C9CCC(=O)NC9=O)cc8)CC7)CC6)nn5)ccc4c23)C(=O)N1` (stereo partly drawn) [Ex 49, 3-(4-(4-(2-(4-(4-((R)-10-Methyl-8-oxo-9,10,11,12-tetrahydro-8H-[1,4]diazepino[5′,6′:4,5]thieno[3,2-f]quinolin-3-yl)-1H-1,2,3-triazol-1-yl)piperidin-1-yl)ethyl)piperazin-1-yl)phenyl)piperidine-2,6-dione], the pIC50 is greater than 6.82. For the compound `C[C@@H]1CNc2c(sc3ccc4nc(-c5cn(C6CCN(CCN7CCN(c8ccc9c(C%10CCC(=O)NC%10=O)nn(C)c9c8)CC7)CC6)nn5)ccc4c23)C(=O)N1` (stereo partly drawn) [Ex 50, 3-(1-Methyl-6-(4-(2-(4-(4-((R)-10-methyl-8-oxo-9,10,11,12-tetrahydro-8H-[1,4]diazepino[5′,6′:4,5]thieno[3,2-f]quinolin-3-yl)-1H-1,2,3-triazol-1-yl)piperidin-1-yl)ethyl)piperazin-1-yl)-1H-indazol-3-yl)piperidine-2,6-dione], the pIC50 was greater than 6.82.

For the compound `C[C@@H]1CNc2c(sc3ccc4nc(-c5cnn(C6CN(CCN7CCN(c8ccc(C9CCC(=O)NC9=O)cc8)CC7)C6)c5)ccc4c23)C(=O)N1` (stereo partly drawn) [Ex 51, 3-(4-(4-(2-(3-(4-((R)-10-Methyl-8-oxo-9,10,11,12-tetrahydro-8H-[1,4]diazepino[5′,6′:4,5]thieno[3,2-f]quinolin-3-yl)-1H-pyrazol-1-yl)azetidin-1-yl)ethyl)piperazin-1-yl)phenyl)piperidine-2,6-dione], the pIC50 is greater than 6.82.

With `C[C@@H]1CNc2c(sc3ccc4nc(-c5cnn(C6CN(CCN7CCN(c8ccc9c(C%10CCC(=O)NC%10=O)nn(C)c9c8)CC7)C6)c5)ccc4c23)C(=O)N1` (stereo partly drawn) [Ex 52, 3-(1-Methyl-6-(4-(2-(3-(4-((R)-10-methyl-8-oxo-9,10,11,12-tetrahydro-8H-[1,4]diazepino[5′,6′:4,5]thieno[3,2-f]quinolin-3-yl)-1H-pyrazol-1-yl)azetidin-1-yl)ethyl)piperazin-1-yl)-1H-indazol-3-yl)piperidine-2,6-dione], the pIC50 is greater than 6.82. Take `C[C@@H]1CNc2c(sc3ccc4nc(-n5cc(C6CN(CCN7CCN(c8ccc(C9CCC(=O)NC9=O)cc8)CC7)C6)nn5)ccc4c23)C(=O)N1` (stereo partly drawn) [Ex 53, 3-(4-(4-(2-(3-(1-((R)-10-Methyl-8-oxo-9,10,11,12-tetrahydro-8H-[1,4]diazepino[5′,6′:4,5]thieno[3,2-f]quinolin-3-yl)-1H-1,2,3-triazol-4-yl)azetidin-1-yl)ethyl)piperazin-1-yl)phenyl)piperidine-2,6-dione]: the pIC50 is greater than 6.82. Take `C[C@@H]1CNc2c(sc3ccc4nc(-n5cc(C6CN(CCN7CCC(c8ccc(C9CCC(=O)NC9=O)cc8)CC7)C6)nn5)ccc4c23)C(=O)N1` (stereo partly drawn) [Ex 54, 3-(4-(1-(2-(3-(1-((R)-10-Methyl-8-oxo-9,10,11,12-tetrahydro-8H-[1,4]diazepino[5′,6′:4,5]thieno[3,2-f]quinolin-3-yl)-1H-1,2,3-triazol-4-yl)azetidin-1-yl)ethyl)piperidin-4-yl)phenyl)piperidine-2,6-dione]: the pIC50 is greater than 6.82.

Consider `C[C@@H]1COc2c(sc3ccc4nc(C#CC5CCN(C(=O)C(=O)N6CCN(c7ccc(C8CCC(=O)NC8=O)cc7)CC6)CC5)ccc4c23)C(=O)N1` (stereo partly drawn) [Ex 55, 3-(4-(4-(2-(4-(((R)-10-Methyl-8-oxo-8,9,10,11-tetrahydro-[1,4]oxazepino[7′,6′:4,5]thieno[3,2-f]quinolin-3-yl)ethynyl)piperidin-1-yl)-2-oxoacetyl)piperazin-1-yl)phenyl)piperidine-2,6-dione], for which the pIC50 was 6.00 to 6.30.

Values taken from patent US20260109708A1, “COMPOUNDS AND COMPOSITIONS USEFUL AS DEGRADERS OF MK2 KINASE” (Celgene Corporation, priority 2023, published 2026).
